Laboratory results reported in patent US20190175785A1, “SILK FIBROIN SYSTEMS FOR ANTIBIOTIC DELIVERY” (Trustees of Tufts College, priority 2009, published 2019).
Converted amounts (≈) assume the structure as drawn. Read-outs that look alike come from different tables or passages of the source.

Experiments:
S. aureus ATCC 25923 = conditions: S. aureus ATCC 25923, NCCLS (2000); cited from earlier work
E. coli ATCC 25922 = conditions: E. coli ATCC 25922, NCCLS (2000); cited from earlier work
[1] = cited from earlier work
[2] = Long-term stability study, residual activity of stored penicillin; type: physicochemical; conditions: stored at 25° C. and 37° C.
Protocol: To determine if incorporation into silk films would have a similar stabilizing effect to that observed for enzymes, a long-term stability study was carried out comparing the residual activity of penicillin stored in 8% (w/v) silk films or in solution at 4° C. (refrigeration), 25° C. (room temperature) and 37° C. (body temperature).
Stability was also characterized for dry penicillin powder stored at 4° C., 25° C., and 37° C. Comparison of the stability of penicillin stored in silk films, in solution and in dry powder format over 60 days is shown in FIG. 14.

Molecule | MIC (S. aureus ATCC 25923) [µg/mL] | MIC (E. coli ATCC 25922) [µg/mL] | time of breakdown in solution ([1]; 37° C.) [h] | time of breakdown in solution ([1]; room temperature (25° C.)) | stability of penicillin in solution [2]
Cc1nnc(SCC2=C(C(=O)O)N3C(=O)[C@@H](NC(=O)Cn4cnnn4)[C@H]3SC2)s1 [cefazolin] | 0.25 (≈ 0.55 µM) | 1.0 (≈ 2.2 µM) | – | – | –
gentamicin | 0.25 | 0.5 | – | – | –
penicillin | – | – | ≤ 24 | within weeks | rapidly declines
